Key:
[1] = test system: HCT116; test: AC50 cell viability (CellTiter-Glo); higher = less potent; conditions: 48 h
[2] = test system: HCT116; test: efficacy (fitted maximal change in viability relative to DMSO control); higher = less cytotoxic (negative = loss of viability); conditions: 48 h
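Wherever AC50 cell viability (CellTiter-Glo) is given: HCT116 colorectal carcinoma cells screened at five concentrations per compound, luminescent viability scaled between DMSO wells and empty wells on each plate, curves fitted per compound.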
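Wherever efficacy (fitted maximal change in viability relative to DMSO control) is given: Luminescence-based viability readout, five doses per compound, normalized against on-plate DMSO and empty-well controls, followed by dose-response curve fitting for every drug.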

Question: `CONC(=O)Nc1ccc(-c2sc3c(c2CN(C)Cc2ccccc2)c(=O)n(-c2ccccc2)c(=O)n3Cc2c(F)cccc2F)cc1` [Sufugolix] was tested. Which AC50 cell viability [1] did it give?
Answer: Its AC50 cell viability is 16.6 µM.

Question: What about the efficacy [2] of the same molecule?
Answer: The efficacy was -35.8%.

Question: Which AC50 cell viability [1] does the source give for `O=C(NO)c1cnc(NC2(c3ccccc3)CC2)nc1` [ACY-738] here?
Answer: The AC50 cell viability was 3.32 µM.

Question: And the efficacy [2]?
Answer: The efficacy was -79.1%.

Question: For `CC(=O)C\1=C(/C)C2=CN=C(NC3=CC=C(C=N3)N4CCNCC4)N=C2N(C5CCCC5)C1=O` [Palbociclib], which AC50 cell viability [1] is on record?
Answer: The AC50 cell viability was 16.6 µM.

Question: And the efficacy [2]?
Answer: Its efficacy is -109%.

Question: How did the AC50 cell viability [1] turn out when `Cc1c(-c2ccc(-c3ccccc3F)cc2)nc2ccc(F)cc2c1C(=O)O` [Brequinar] was run?
Answer: The AC50 cell viability was 0.209 µM.

Question: And the efficacy [2]?
Answer: The efficacy was -62.1%.

Question: Which results are given for `C[S+](=O)([O-])N1CCc2c(-c3cnc(N)nc3)nc(N3CCOCC3)nc21`?
Answer: AC50 cell viability [1]: 0.661 µM; efficacy [2]: -56.8%

Question: What does the source list for `COC1=C(OCCCN2CCOCC2)C=CC\3=C1/N=C(/NC(=O)C4=CN=C(N)N=C4)N5CC/N=C35` [Copanlisib]?
Answer: AC50 cell viability [1]: 0.0679 µM; efficacy [2]: -57.4%

Question: What does the source list for `CC1CC2=CC=CC=C2N1C(=O)C\C3=N\C(=O)\C=C(/N3)N4CCOCC4` (stereo not drawn)?
Answer: AC50 cell viability [1]: 18.6 µM; efficacy [2]: -57.5%

Question: Which results are given for `CC1=CC=C2\N=C/3N(CC[C@@]3(O)C(=O)C2=C1)C4=CC=CC=C4` [(-)-Blebbistatin]?
Answer: AC50 cell viability [1]: 0.132 µM; efficacy [2]: -35.7%

Question: Which results are given for `Cc1nc(N)sc1-c1ccnc(Nc2ccc(N3CCOCC3)cc2)n1` [CYC-116]?
Answer: AC50 cell viability [1]: 2.09 µM; efficacy [2]: -61%

Question: How did the AC50 cell viability [1] turn out when `C=C(C)[C@H]1Cc2c(ccc3c2O[C@@H]2COc4cc(OC)c(OC)cc4[C@@H]2C3=O)O1` [Rotenone] was run?
Answer: Its AC50 cell viability is 0.525 µM.

Question: And the efficacy [2]?
Answer: The efficacy was -64.9%.

Question: With `Cc1c(NC(=O)OC[C@@H]2COCCN2)cn2ncnc(Nc3ccc4c(cnn4Cc4cccc(F)c4)c3)c12` [AC-480] as the molecule, how does the AC50 cell viability [1] read?
Answer: The AC50 cell viability was 20.9 µM.

Question: What about the efficacy [2] of the same molecule?
Answer: The efficacy was -82.6%.

Question: What does the source list for `CCNC(=O)C#Cc1ccc2c(c1)NC(=O)/C2=C(\Nc1ccc(CN(C)C)cc1)c1ccccc1`?
Answer: AC50 cell viability [1]: 0.257 µM; efficacy [2]: -104%

Question: What does the source list for `CCc1cc(/C(C)=N/OCc2ccc(C3CCCCC3)c(C(F)(F)F)c2)ccc1CN1CC(C(=O)O)C1` [BAF-312]?
Answer: AC50 cell viability [1]: 20.9 µM; efficacy [2]: -66.2%

Question: What does the source list for `COC[C@H](NC(=O)c1cnc(C)s1)C(=O)N[C@@H](COC)C(=O)N[C@@H](Cc1ccccc1)C(=O)[C@@]1(C)CO1` [Oprozomib]?
Answer: AC50 cell viability [1]: 0.0742 µM; efficacy [2]: -88.1%

Question: Which AC50 cell viability [1] does the source give for `CC(=O)NCC(=O)N1[C@@H]2CC[C@H]1c1ccc(Nc3ncc(C(F)(F)F)c(NC4CCC4)n3)cc12` here?
Answer: Its AC50 cell viability is 1.48 µM.

Question: What about the efficacy [2] of the same molecule?
Answer: The efficacy was -73.5%.

Question: With `CC(C)(Cc1ccc2ccccc2c1)NC[C@@H](O)COc1cccc(Cl)c1C#N` [NPS-2143] as the molecule, how does the AC50 cell viability [1] read?
Answer: Its AC50 cell viability is 9.34 µM.

Question: What about the efficacy [2] of the same molecule?
Answer: Its efficacy is -97.5%.

Question: Which results are given for `O=C(NOCC1CC1)c1ccc(F)c(F)c1Nc1ccc(I)cc1Cl`?
Answer: AC50 cell viability [1]: 4.68 µM; efficacy [2]: -126%

Question: With `COc1cc(C)c(Sc2cnc(NC(=O)c3ccc(CNC(C)C(C)C)cc3)s2)cc1C(=O)N1CCN(C(C)=O)CC1` (stereo not drawn) [ITK Inhibitor] as the molecule, how does the AC50 cell viability [1] read?
Answer: The AC50 cell viability was 14.8 µM.

Question: What about the efficacy [2] of the same molecule?
Answer: Its efficacy is -132%.

Question: With `Nc1nc(N)c(N=O)c(OCC2CCCCC2)n1` [NU-6027] as the molecule, how does the AC50 cell viability [1] read?
Answer: The AC50 cell viability was 13.2 µM.

Question: And the efficacy [2]?
Answer: Its efficacy is -64.3%.

Question: Which results are given for `FC(F)(F)c1ccc(Nc2nc(-c3c(C(F)(F)F)nc4ccccn34)cs2)cc1` [PTC-691]?
Answer: AC50 cell viability [1]: 0.332 µM; efficacy [2]: -73.4%

Question: With `Cc1cccc(-c2n[nH]cc2-c2ccc(F)c(-c3cnn(CCO)c3)c2)n1` as the molecule, how does the AC50 cell viability [1] read?
Answer: The AC50 cell viability was 26.3 µM.

Question: What about the efficacy [2] of the same molecule?
Answer: Its efficacy is -71.1%.

Question: How did the AC50 cell viability [1] turn out when `O=C(Nc1cccc(C(F)(F)F)c1)Nc1cc([S+](=O)([O-])NC2CC2)ccc1-c1ccsc1` [AGI-6780] was run?
Answer: The AC50 cell viability was 26.3 µM.

Question: What about the efficacy [2] of the same molecule?
Answer: The efficacy was -99.4%.

Question: With `Cc1cnc(NC(=O)Nc2cc(Br)c(C)cc2OC[C@@H]2CNCCO2)cn1` [Rabusertib] as the molecule, how does the AC50 cell viability [1] read?
Answer: The AC50 cell viability was 16.6 µM.

Question: And the efficacy [2]?
Answer: Its efficacy is -103%.

Question: How did the AC50 cell viability [1] turn out when `C[C@@H]1CC(=O)Nc2cccc(-c3ccc4c(c3)c(-c3cnn(C)c3)nn4C)c2N1` [CPI-637] was run?
Answer: The AC50 cell viability was 11.8 µM.

Question: What about the efficacy [2] of the same molecule?
Answer: Its efficacy is -82.6%.
